From publication PMC3447535 (Neuropharmacology, 2012)

Legend:
[1] = tested on: Egr1-EGFP reporter gene in primary cultured cortical neurons; test: Egr1 reporter gene assay; type: cell-based, mouse; details: 24 hour treatments
Grn (granulin) = details: ref Cenik et al., 2011; cited from earlier work
[2] = tested on: acetylated histone H3, H4, H2A, H2B in cultured primary mouse neurons; test: Western blotting of neuronal histone acetylation; type: cell-based; details: 1 μM, 24 hrs
[3] = Crebinostat concentration in brain and plasma; type: in vivo, mouse; details: single IP dose 25 mg/kg
C57BL/6J mice = test: Open field locomotion prior to footshock; type: in vivo, mouse; details: 25 mg/kg IP daily, 10 days
[4] = tested on: hippocampal acetylation of H4K12 and H3K9; test: Western blot of hippocampal histone acetylation after IP injection; type: in vivo, mouse; details: one hour after IP injection
[5] = tested on: 6X-CRE-β-galactosidase CREB reporter gene in PC12 cells; test: CREB reporter gene assay; type: cell-based; details: for effect on forskolin induction of the CREB reporter gene: in the presence of forskolin (10 μM), 4 hr, library compounds 20 μM
[6] = tested on: mouse forebrain primary cultured neurons; test: Transcriptome profiling; type: cell-based; details: 1 μM, 24 hrs
[7] = tested on: mouse forebrain primary cultured neurons; test: Quantitative RT-PCR assays of gene expression; type: cell-based; details: 1 μM
[8] = tested on: Homer1 expression in cortical neurons; test: NanoString nCounter gene expression assay; type: cell-based, mouse; details: crebinostat 1 μM 24 hours, BDNF 20 ng/ml last 6 hours
[9] = tested on: mouse primary forebrain cultures; test: Synapsin I punctae imaging along Map2-positive dendrites; type: cell-based; details: 1 μM, 24 hr
[10] = tested on: mouse primary forebrain cultures; test: Toxicity in primary neuronal cultures on coverslips; type: cell-based; details: 1 μM, 24 hrs
[11] = tested on: AcH4K12 in mouse primary forebrain cultures; test: High resolution neuronal histone acetylation imaging; type: cell-based; details: 1 μM, 24 hrs
recombinant HDAC1 [12] = target: T1, recombinant HDAC1 (Homo sapiens, UniProt Q13547); details: more potent than SAHA
recombinant HDAC1 [13] = target: T1, recombinant HDAC1; test: biochemical
recombinant HDAC2 = recombinant HDAC2 (Homo sapiens, UniProt Q92769); test: In vitro HDAC enzymatic assay, HDAC2
recombinant HDAC3 = recombinant HDAC3 (Homo sapiens, UniProt O15379); test: In vitro HDAC enzymatic assay, HDAC3
recombinant HDAC4 = recombinant HDAC4 (Homo sapiens, UniProt P56524); test: In vitro HDAC enzymatic assay, HDAC4; details: read-out: IC50 for inhibition of enzymatic activity of HDAC4; Class IIa
recombinant HDAC5 = recombinant HDAC5 (Homo sapiens, UniProt Q9UQL6); test: In vitro HDAC enzymatic assay, HDAC5; details: read-out: IC50 for inhibition of enzymatic activity of HDAC5; Class IIa
recombinant HDAC7 = target: T2, recombinant HDAC7 (Homo sapiens, UniProt Q8WUI4); test: In vitro HDAC enzymatic assay, HDAC7; details: read-out: IC50 for inhibition of enzymatic activity of HDAC7; Class IIa
T2 sequence (Q8WUI4 1-952): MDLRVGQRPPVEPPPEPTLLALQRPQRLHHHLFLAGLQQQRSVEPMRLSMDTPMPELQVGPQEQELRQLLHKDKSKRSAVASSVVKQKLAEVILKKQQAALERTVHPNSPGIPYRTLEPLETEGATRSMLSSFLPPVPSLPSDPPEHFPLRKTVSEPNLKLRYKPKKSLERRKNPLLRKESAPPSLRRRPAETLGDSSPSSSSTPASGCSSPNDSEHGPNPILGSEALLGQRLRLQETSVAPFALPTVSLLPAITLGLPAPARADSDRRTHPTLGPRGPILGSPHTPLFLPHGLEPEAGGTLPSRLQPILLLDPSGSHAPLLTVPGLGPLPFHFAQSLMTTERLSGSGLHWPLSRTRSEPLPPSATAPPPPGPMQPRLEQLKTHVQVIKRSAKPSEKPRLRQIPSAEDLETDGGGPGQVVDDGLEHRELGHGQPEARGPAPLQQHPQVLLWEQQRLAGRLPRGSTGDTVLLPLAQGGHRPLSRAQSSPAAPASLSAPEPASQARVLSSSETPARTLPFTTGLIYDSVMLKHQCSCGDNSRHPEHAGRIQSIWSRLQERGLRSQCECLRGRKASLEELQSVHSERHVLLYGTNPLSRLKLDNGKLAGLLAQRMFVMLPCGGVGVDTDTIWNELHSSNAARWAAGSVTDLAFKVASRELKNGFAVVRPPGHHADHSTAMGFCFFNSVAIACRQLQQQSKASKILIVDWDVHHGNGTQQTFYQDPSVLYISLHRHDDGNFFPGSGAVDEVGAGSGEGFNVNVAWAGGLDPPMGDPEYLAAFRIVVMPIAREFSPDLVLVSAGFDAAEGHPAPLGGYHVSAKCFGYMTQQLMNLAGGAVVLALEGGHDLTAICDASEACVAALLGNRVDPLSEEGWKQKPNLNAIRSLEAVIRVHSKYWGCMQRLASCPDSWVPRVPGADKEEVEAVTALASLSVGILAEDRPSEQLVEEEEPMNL

recombinant HDAC9 = recombinant HDAC9 (Homo sapiens, UniProt Q9UKV0); test: In vitro HDAC enzymatic assay, HDAC9; details: read-out: IC50 for inhibition of enzymatic activity of HDAC9; Class IIa
recombinant HDAC6 = target: T3, recombinant HDAC6 (Homo sapiens, UniProt Q9UBN7); test: In vitro HDAC enzymatic assay, HDAC6
T3 sequence (Q9UBN7 1-1215): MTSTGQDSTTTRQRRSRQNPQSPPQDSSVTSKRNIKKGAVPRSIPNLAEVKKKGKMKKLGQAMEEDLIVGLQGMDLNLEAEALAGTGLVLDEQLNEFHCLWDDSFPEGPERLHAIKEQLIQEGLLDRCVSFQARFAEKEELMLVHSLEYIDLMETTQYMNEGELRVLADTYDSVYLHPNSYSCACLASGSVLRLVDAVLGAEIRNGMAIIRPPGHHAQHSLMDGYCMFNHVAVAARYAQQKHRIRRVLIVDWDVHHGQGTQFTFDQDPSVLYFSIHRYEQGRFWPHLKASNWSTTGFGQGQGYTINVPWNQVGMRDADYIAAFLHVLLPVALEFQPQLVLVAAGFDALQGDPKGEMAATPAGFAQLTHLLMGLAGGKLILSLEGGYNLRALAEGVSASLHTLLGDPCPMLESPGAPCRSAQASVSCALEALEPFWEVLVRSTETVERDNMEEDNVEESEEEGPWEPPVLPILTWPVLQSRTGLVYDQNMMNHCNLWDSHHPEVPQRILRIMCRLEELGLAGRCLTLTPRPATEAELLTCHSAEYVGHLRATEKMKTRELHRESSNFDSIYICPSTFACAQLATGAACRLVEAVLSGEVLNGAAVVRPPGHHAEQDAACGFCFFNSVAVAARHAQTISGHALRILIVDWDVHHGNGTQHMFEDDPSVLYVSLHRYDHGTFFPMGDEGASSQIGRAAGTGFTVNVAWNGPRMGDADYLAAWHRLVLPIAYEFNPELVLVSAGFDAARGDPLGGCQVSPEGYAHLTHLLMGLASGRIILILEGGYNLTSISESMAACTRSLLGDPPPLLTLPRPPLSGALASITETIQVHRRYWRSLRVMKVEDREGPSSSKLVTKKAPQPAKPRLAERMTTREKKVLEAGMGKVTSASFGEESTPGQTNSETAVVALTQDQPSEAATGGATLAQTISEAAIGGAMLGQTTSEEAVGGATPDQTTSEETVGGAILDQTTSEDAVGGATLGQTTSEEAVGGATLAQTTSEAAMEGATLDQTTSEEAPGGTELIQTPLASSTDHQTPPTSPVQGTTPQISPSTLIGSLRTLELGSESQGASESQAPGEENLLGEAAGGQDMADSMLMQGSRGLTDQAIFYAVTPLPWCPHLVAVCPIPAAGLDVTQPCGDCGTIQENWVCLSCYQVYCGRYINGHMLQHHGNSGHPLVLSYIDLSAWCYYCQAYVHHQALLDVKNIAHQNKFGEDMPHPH

[14] = tested on: AcH4K12 in mouse primary cultured forebrain neurons; test: Neuronal histone acetylation immunofluorescence assay, AcH4K12; details: AcH4K12 and AcH3K9; more potent than SAHA

T1 sequence (Q13547 whole entry): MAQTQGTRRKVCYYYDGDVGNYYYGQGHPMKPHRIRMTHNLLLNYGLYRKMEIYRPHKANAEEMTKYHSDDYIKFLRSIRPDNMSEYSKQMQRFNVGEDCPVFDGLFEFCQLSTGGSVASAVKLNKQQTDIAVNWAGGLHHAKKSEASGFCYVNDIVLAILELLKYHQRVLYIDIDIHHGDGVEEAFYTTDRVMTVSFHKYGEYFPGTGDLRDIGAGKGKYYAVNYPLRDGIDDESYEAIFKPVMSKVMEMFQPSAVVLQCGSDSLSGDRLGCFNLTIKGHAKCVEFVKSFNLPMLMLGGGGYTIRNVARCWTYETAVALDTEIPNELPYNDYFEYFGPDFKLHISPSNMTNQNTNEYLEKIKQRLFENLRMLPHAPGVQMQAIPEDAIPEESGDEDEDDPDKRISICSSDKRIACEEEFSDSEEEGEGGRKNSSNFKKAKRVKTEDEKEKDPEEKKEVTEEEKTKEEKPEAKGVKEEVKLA
Sequence of recombinant HDAC2 (Q92769 whole entry): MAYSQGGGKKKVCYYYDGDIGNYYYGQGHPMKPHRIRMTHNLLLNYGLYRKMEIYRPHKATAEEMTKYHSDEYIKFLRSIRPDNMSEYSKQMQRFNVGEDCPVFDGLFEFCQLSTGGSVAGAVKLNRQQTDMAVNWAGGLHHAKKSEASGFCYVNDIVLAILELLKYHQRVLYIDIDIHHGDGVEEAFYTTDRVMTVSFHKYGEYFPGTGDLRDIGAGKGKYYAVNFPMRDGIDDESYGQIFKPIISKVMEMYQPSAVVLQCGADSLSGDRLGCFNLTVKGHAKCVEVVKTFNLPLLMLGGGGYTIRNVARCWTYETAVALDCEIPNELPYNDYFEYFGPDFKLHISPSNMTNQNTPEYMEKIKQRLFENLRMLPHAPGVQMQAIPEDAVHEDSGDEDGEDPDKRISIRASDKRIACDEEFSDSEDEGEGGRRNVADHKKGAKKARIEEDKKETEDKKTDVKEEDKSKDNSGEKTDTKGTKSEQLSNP
Sequence of recombinant HDAC9 (Q9UKV0 whole entry): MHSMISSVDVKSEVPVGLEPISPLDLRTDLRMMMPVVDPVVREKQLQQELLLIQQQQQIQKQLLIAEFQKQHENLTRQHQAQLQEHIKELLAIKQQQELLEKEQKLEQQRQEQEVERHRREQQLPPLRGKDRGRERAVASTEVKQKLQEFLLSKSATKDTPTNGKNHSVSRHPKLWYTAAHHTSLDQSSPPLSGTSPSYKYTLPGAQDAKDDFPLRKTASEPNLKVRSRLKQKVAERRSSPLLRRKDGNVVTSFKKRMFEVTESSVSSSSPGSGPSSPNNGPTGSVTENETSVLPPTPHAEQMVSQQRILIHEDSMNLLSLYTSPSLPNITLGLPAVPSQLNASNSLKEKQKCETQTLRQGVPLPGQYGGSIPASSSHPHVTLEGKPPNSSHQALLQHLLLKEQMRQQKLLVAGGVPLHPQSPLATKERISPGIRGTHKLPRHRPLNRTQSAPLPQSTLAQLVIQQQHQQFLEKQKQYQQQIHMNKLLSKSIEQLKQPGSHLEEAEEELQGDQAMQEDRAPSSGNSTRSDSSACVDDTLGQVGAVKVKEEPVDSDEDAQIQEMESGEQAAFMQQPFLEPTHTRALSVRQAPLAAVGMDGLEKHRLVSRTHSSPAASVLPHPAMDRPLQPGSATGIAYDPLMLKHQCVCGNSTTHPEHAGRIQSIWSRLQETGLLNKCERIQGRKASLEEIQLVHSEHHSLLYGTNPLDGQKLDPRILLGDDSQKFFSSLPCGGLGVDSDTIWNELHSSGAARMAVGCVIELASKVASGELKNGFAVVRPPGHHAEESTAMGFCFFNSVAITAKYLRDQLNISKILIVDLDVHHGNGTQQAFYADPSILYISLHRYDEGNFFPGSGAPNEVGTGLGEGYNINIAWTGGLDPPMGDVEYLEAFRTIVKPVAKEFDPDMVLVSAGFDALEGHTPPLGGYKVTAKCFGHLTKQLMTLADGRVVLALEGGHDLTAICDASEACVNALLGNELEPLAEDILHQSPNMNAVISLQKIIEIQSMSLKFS
Sequence of recombinant HDAC5 (Q9UQL6 whole entry): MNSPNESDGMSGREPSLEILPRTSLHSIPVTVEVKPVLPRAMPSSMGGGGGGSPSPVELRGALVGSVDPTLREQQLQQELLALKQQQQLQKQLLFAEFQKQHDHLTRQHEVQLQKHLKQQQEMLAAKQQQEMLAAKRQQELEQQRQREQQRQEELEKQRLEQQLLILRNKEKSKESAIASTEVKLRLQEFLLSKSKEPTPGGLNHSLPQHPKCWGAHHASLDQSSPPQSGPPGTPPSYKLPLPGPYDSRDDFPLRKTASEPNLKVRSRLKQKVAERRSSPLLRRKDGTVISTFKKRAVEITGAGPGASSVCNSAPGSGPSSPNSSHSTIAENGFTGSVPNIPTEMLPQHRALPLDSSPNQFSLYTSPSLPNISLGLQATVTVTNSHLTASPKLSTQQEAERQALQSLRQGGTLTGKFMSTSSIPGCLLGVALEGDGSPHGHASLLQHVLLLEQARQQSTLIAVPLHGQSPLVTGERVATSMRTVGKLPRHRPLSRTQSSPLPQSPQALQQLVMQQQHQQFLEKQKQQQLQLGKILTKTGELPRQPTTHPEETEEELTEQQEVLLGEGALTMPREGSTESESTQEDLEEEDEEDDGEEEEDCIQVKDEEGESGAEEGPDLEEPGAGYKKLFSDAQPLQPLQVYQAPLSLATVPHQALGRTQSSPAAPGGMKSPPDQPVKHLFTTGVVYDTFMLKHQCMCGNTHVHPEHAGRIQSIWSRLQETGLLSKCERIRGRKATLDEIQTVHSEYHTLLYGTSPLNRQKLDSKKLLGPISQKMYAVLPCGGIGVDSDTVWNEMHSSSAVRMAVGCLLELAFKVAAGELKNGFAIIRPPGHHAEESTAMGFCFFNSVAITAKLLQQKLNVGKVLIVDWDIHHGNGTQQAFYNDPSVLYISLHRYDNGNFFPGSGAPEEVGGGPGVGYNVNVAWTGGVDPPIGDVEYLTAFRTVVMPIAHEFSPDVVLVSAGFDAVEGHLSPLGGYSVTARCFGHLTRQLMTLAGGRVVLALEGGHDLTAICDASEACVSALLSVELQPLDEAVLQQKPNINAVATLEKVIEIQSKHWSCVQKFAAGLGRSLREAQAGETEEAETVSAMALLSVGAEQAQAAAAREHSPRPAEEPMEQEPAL
Sequence of recombinant HDAC3 (O15379 whole entry): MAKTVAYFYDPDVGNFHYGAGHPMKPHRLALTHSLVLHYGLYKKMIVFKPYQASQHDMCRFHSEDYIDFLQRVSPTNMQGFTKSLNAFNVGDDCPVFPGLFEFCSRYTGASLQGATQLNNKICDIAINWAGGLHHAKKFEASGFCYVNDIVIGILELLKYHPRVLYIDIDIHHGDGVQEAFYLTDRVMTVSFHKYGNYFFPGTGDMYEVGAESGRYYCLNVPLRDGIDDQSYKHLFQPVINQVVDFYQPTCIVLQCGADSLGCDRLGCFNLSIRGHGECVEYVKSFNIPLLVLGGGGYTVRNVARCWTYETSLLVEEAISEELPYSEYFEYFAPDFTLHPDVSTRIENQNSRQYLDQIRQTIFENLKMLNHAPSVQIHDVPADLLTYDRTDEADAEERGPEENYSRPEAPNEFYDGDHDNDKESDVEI
Sequence of recombinant HDAC3 (Q9Y618 395-489 partner limits assumed): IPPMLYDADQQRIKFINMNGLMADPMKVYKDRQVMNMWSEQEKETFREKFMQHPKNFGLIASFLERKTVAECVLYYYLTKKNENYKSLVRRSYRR
Sequence of recombinant HDAC4 (P56524 whole entry): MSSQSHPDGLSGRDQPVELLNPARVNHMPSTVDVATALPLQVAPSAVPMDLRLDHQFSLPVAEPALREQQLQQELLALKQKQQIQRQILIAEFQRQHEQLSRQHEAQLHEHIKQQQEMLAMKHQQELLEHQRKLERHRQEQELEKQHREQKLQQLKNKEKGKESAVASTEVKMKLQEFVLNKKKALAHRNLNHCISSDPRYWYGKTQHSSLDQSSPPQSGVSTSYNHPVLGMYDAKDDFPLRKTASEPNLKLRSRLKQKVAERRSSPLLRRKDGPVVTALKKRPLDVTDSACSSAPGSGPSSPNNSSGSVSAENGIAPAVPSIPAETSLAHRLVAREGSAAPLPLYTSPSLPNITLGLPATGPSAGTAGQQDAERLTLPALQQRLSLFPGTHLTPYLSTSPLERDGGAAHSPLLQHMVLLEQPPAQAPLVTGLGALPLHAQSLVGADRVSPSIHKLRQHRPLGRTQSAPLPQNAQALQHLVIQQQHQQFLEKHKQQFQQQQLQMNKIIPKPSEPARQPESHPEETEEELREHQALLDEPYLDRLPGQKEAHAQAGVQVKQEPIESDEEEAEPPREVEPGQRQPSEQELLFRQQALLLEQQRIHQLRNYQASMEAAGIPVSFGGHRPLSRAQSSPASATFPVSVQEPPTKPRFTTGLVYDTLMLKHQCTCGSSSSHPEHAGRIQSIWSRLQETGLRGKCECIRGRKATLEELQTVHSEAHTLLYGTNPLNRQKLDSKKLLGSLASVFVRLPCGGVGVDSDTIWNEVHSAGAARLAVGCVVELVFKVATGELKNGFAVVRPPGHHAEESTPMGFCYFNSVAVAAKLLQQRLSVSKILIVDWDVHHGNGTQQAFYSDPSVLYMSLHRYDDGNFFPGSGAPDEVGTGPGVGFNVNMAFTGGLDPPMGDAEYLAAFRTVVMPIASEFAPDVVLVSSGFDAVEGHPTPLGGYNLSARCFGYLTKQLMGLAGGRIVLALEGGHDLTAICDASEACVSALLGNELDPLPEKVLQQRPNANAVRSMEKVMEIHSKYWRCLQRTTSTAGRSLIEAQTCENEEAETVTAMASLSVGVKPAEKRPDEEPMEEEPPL

Compound: O=C(CCCCCCC(=O)Nc1ccccc1)NO [SAHA, suberoylanilide hydroxamic acid, reference compound]
- Egr1-EGFP reporter gene activity [1]: induced
- expression of Grn (granulin) in cell lines (Grn (granulin)): upregulate

Compound: O=C(CCCCCC(=O)NN=Cc1ccc(-c2ccccc2)cc1)NO [crebinostat, 7-(2-([1,1′-biphenyl]-4-ylmethylene)hydrazinyl)-N-hydroxy-7-oxoheptanamide]
- acetylation of histone H3, H4, H2A and H2B (western blot) [2]: strong increases
- half-life ([3]; C57BL/6, mouse, brain, ip, 25 mg/kg, half-life (T1/2), mouse brain): 43.2 min
- time of Cmax in brain post-injection ([3]; mouse): 30 min
- exploratory activity immediately prior to foot shock versus vehicle (C57BL/6J mice): no significant differences
- total hippocampal acetylation of H4K12 and H3K9 [4]: not statistically significant
- effect on forskolin induction of the CREB reporter gene [5]: strong activation of the reporter only in the presence of forskolin
- Egr1-EGFP reporter gene activity [1]: induced
- Fold upregulation (Illumina array) Aldh2 [6]: 2.0 fold
- Fold upregulation (Illumina array) Sdcbp [6]: 2.2 fold
- Grn mRNA expression ([7]; 24 hours): upregulate
- Hspa1b (Hsp70) mRNA expression ([7]; 24 hours): upregulated
- Mapt mRNA expression ([7]; 24 hours): downregulated
- Bdnf mRNA expression ([7]; 24 hours, Bdnf transcript IV): upregulated
- Fold upregulation (RT-PCR) Aldh2 ([7]; 24 hrs, normalized to Gapdh): 2.3 fold
- Fold upregulation (RT-PCR) Egr1 ([7]; 24 hrs, normalized to Gapdh): 3.9 fold
- Fold upregulation (RT-PCR) Pik3c3 ([7]; 24 hrs, normalized to Gapdh): 2.2 fold
- Fold upregulation (RT-PCR) Sdcbp ([7]; 24 hrs, normalized to Gapdh): 2.3 fold
- regulation of Homer1 expression together with BDNF stimulation [8]: synergistic
- increase in dendritic synapsin I punctae density [9]: ~2 fold
- synapsin I punctae size or staining intensity [9]: did not alter
- total dendrite length per image [9]: did not alter
- toxicity in neuronal cultures [10]: no detectable toxicity
- histone acetylation (AcH4K12) in cultures on glass coverslips [11]: robust increase
- potency relative to SAHA for inhibition of class I HDACs 1-3 (recombinant HDAC1 [12]): approximately 10 fold
- IC50 (recombinant HDAC1 [13]): 0.7 ± 0.04 nM
- IC50 (recombinant HDAC2): 1 ± 0.08 nM
- IC50 (recombinant HDAC3): 2 ± 0.3 nM
- IC50 (recombinant HDAC4): > 2000 nM
- IC50 (recombinant HDAC5): > 2000 nM
- IC50 (recombinant HDAC7): > 2000 nM
- IC50 (recombinant HDAC9): > 2000 nM
- IC50 (recombinant HDAC6): 9.3 ± 0.6 nM
- potency relative to SAHA at inducing histone acetylation in neurons [14]: ~ 6 fold

Compound: C=C[C@@]1(C)CC(=O)[C@]2(O)[C@@]3(C)[C@@H](O)CCC(C)(C)[C@@H]3[C@H](O)[C@H](OC(C)=O)[C@@]2(C)O1 [forskolin]
- induction of the CREB reporter gene ([5]; 10 μM, 4 hours, PC12 cells): ~ 4 fold

Compound: CC(/C=C/C(=O)NO)=C\[C@@H](C)C(=O)c1ccc(N(C)C)cc1 [trichostatin A]
- effect on forskolin induction of the CREB reporter gene [5]: further enhanced
